Assay [1] concerns AGS. The experiment in a line: Induction of apoptosis in TRAIL-resistant human AGS cells assessed as decrease in cell viability at 2 uM after 24 hrs in presence of TRAIL (reference value: 9%). Format: functional.
The test system of assay [2] is AGS. The experiment in a line: Induction of apoptosis in TRAIL-resistant human AGS cells assessed as decrease in cell viability at 5 uM after 24 hrs in presence of TRAIL (reference value: 9%). The assay is classed as functional.
Assay [3] relates to AGS. The assay is described as follows: Induction of apoptosis in TRAIL-resistant human AGS cells assessed as decrease in cell viability at 20 uM after 24 hrs in presence of TRAIL (reference value: 9%). The assay is classed as functional.
In assay [4] the test system is AGS. The experiment in a line: Induction of apoptosis in TRAIL-resistant human AGS cells assessed as decrease in cell viability at 40 uM after 24 hrs in presence of TRAIL (reference value: 9%). The assay is classed as functional.
The subject of assay [5] is AGS. The assay is described as follows: Induction of apoptosis in TRAIL-resistant human AGS cells assessed as decrease in cell viability at 7.5 uM after 24 hrs in presence of TRAIL (reference value: 9%). Format: functional.
Assay [6] concerns AGS. The experiment in a line: Induction of apoptosis in TRAIL-resistant human AGS cells assessed as decrease in cell viability at 10 uM after 24 hrs in presence of TRAIL (reference value: 9%). Format: functional.
The subject of assay [7] is AGS. The assay is described as follows: Induction of apoptosis in TRAIL-resistant human AGS cells assessed as decrease in cell viability at 3 uM after 24 hrs in presence of TRAIL (reference value: 9%). The assay is classed as functional.
Assay [8] has as its system AGS. The experiment in a line: Induction of apoptosis in TRAIL-resistant human AGS cells assessed as fold increase in caspase 3/7 at 5 uM after 24 hrs by Caspase-Glo 3/7 assay kit. The assay is classed as functional.
The test system of assay [9] is AGS. The assay is described as follows: Induction of apoptosis in TRAIL-resistant human AGS cells assessed as fold increase in caspase 3/7 at 3 uM after 24 hrs by Caspase-Glo 3/7 assay kit. Format: functional.
The subject of assay [10] is AGS. The assay is described as follows: Induction of apoptosis in TRAIL-resistant human AGS cells assessed as fold increase in caspase 3/7 at 3 uM after 24 hrs by Caspase-Glo 3/7 assay kit in presence of TRAIL. The assay is classed as functional.
Assay [11] has as its system AGS. The assay is described as follows: Induction of apoptosis in TRAIL-resistant human AGS cells assessed as population of apoptotic cells after 6 hrs by annexin-V-FLOUS/ propidium iodide staining based flow cytometry in presence of TRAIL. Format: functional.
The subject of assay [12] is AGS. The assay is described as follows: Induction of apoptosis in TRAIL-resistant human AGS cells assessed as population of apoptotic cells after 6 hrs by annexin-V-FLOUS/ propidium iodide staining based flow cytometry in presence of pan-caspase inhibitor z-VAD-FMK. Format: functional.
In assay [13] the test system is AGS. The assay is described as follows: Induction of apoptosis in TRAIL-resistant human AGS cells assessed as population of apoptotic cells after 6 hrs by annexin-V-FLOUS/ propidium iodide staining based flow cytometry. The assay is classed as functional.
For assay [14], the system named is AGS. The experiment in a line: Induction of apoptosis in TRAIL-resistant human AGS cells assessed as increase in p53 protein level at 3 uM after 6 hrs by Western blotting analysis. Format: functional, cell-based.
For assay [15], the system named is AGS. The assay is described as follows: Induction of apoptosis in TRAIL-resistant human AGS cells assessed as increase in death receptor 5 protein level at 3 uM after 6 hrs by Western blotting analysis. Format: functional.
Assay [16] concerns AGS. The assay is described as follows: Induction of apoptosis in TRAIL-resistant human AGS cells assessed as ROS-mediated increase in death receptor 5 protein level at 3 uM after 6 hrs pretreated with NAC by Western blotting analysis. The assay is classed as functional, cell-based.
Assay [17] deals with AGS. The assay is described as follows: Induction of mitochondrial membrane depolarization in human AGS cells assessed as depolarized cells after 24 hrs by JC-1 staining-based flow cytometric analysis (reference value: 27.1%). Format: functional.
The test system of assay [18] is AGS. The experiment in a line: Induction of apoptosis in TRAIL-resistant human AGS cells assessed as fold increase in caspase 3/7 at 5 uM after 24 hrs by Caspase-Glo 3/7 assay kit in presence of TRAIL. The assay is classed as functional.
Assay [19] deals with AGS. The assay is described as follows: Induction of apoptosis in TRAIL-resistant human AGS cells assessed as decrease in cell viability at 17.5 uM after 24 hrs in presence of TRAIL (reference value: 9%). Format: functional.

Calls of active or inactive are those of the source. The rule behind the calls is not given here.

Turning to `CC(C)=CCc1c2c(c3oc(-c4cc(O)c(O)cc4O)c(CC=C(C)C)c(=O)c3c1O)C=CC(C)(C)O2`, the Activity in the assay on AGS [1] worked out at 46%. For `CC(C)=CCC/C(C)=C/Cc1c(O)c(CC=C(C)C)c(O)c2c(=O)c(CC=C(C)C)c(-c3cc(O)c(O)cc3O)oc12`, in the assay on AGS [2], the Activity is 30%. As for `CC(C)=CCc1cc(/C=C/c2cc(O)cc(O)c2)cc(CC=C(C)C)c1O`, the Activity in the assay with AGS [3] is recorded as 25%. In the case of `COc1c(/C=C/c2cc(O)cc(O)c2)cc(CC=C(C)C)c(O)c1CC=C(C)C`, the Activity in the assay with AGS [4] turned out to be 40%.

As for `CC(C)=CCc1c(O)c(CC=C(C)C)c2oc(-c3cc(O)c(O)cc3O)c(CC=C(C)C)c(=O)c2c1O`, the Activity with AGS [5] is reported as 30%.

As for `C=C(C)[C@H]1Cc2c(oc3c4c(cc(O)c3c2=O)OC(C)(C)C=C4)-c2c(O)cc(O)c(O)c21` [ARTOBILOXANTHONE], the Activity in the assay on AGS [6] was found to be 32%. `CC(C)=CCc1c(-c2cc(O)c(O)cc2O)oc2c3c(cc(O)c2c1=O)OC(C)(C)C=C3` [ARTONIN E]: the Activity with AGS [7] is on record as 44%; with AGS [17], 58.4%. The “fold change (FC)” value with AGS [8] is reported as 11.1; in the assay on AGS [9], 3.7; with AGS [10], 12.2; with AGS [15], 1.9; with AGS [18], 34.3. The “inhibition (INH)” value with AGS [11] turned out to be 32.7%; with AGS [12], 2.9%; in the assay on AGS [13], 3.6%. The outcome with AGS [14] was Active. For the same compound, the outcome with AGS [16] was inactive.

For `C=C(C)[C@H]1Cc2c(oc3c(CC=C(C)C)c(O)c(CC=C(C)C)c(O)c3c2=O)-c2c(O)cc(O)c(O)c21` [ARTORIGIDIN A], the Activity in the assay on AGS [5] was found to be 26%. In the case of `CC(C)=CCc1c(-c2ccc(O)cc2O)oc2cc3c(c(O)c2c1=O)C=CC(C)(C)O3` [CUDRAFLAVONE B], the Activity in the assay with AGS [4] stood at 27%. Regarding `CC(C)=CCc1c(-c2cc(O)c(O)cc2O)oc2c(CC=C(C)C)c3c(c(O)c2c1=O)C=CC(C)(C)O3` [HETEROPHYLLIN], the Activity with AGS [1] is reported as 31%.

For the compound `O=c1cc(-c2ccc(O)c(O)c2)oc2cc(O)cc(O)c12` [LUTEOLIN], the Activity in the assay on AGS [19] was 9%. Turning to `CC(C)=CCc1c(-c2ccc(O)cc2O)oc2c3c(cc(O)c2c1=O)OC(C)(C)C=C3` [MORUSIN], the Activity with AGS [4] was 25%.

Values taken from ChEMBL document CHEMBL3393038, “Prenylated flavonoids and resveratrol derivatives isolated from Artocarpus communis with the ability to overcome TRAIL resistance” (2015).
